Measured values published in US8987285B2, “Pharmaceutical compositions, dosage forms and new forms of the compound of formula (I), and methods of use thereof” (Portola Pharmaceuticals, Inc., priority 2010, dated 2015).

Tests used:
[1] = cited from earlier work
[2] = Surface tension by Kibron Delta-8 tensiometer (microtensiometry); details: for Surface Active: 24.1 ° C.

Compound	LogP [1]	pKa(s) A = acid [1]	pKa(s) B = Base [1]	further results
O=C(O)c1ccc2ccccc2c1 [2-naphthoic acid]	3.28	A 3.884		
C=CCc1ccccc1OCC(O)CNC(C)C (stereo not drawn) [Alprenolol]			B 9.477	
NC12CC3CC(CC(C3)C1)C2 [Amantadine]	2.41		B 10.48	
CN(C)CCC=C1c2ccccc2CCc2ccccc21 [Amitriptyline]			B 9.3	
CCN(CC)Cc1cc(Nc2ccnc3cc(Cl)ccc23)ccc1O [Amodiaquin]	4.2	A 11.49		
NS(=O)(=O)c1cc2c(cc1C(F)(F)F)NC(Cc1ccccc1)NS2(=O)=O (stereo not drawn) [Bendroflumethiazide]	1.95			
CCOC(=O)c1ccc(N)cc1 [Benzocaine]			B 2.39	
NS(=O)(=O)c1cc2c(cc1Cl)N=C(CSCc1ccccc1)NS2(=O)=O [Benzthiazide]	1.73			
CC(C(=O)O)c1ccc2c(c1)[nH]c1ccc(Cl)cc12 (stereo not drawn) [Carprofen]	4.29	A 4.247		
CN(C)CC/C=C1/c2ccccc2Sc2ccc(Cl)cc21 [Chlorprothixene]	5.48		B 9.52	
CNCCCN1c2ccccc2CCc2ccccc21 [Desipramine]			B 10.08	
COc1ccc([C@@H]2Sc3ccccc3N(CCN(C)C)C(=O)[C@@H]2OC(C)=O)cc1 [Diltiazem]	2.89			
NC(N)=Nc1nc(CSCCC(N)=NS(N)(=O)=O)cs1 [Famotidine]	−0.81	11.01	6.77	
O=C(O)c1ccccc1Nc1cccc(C(F)(F)F)c1 [Flufenamic Acid]	5.56	A 3.968		
CC1CCc2cc(F)cc3c(=O)c(C(=O)O)cn1c23 (stereo not drawn) [Flumequine]	1.72	A 6.37		
CNCCC(Oc1ccc(C(F)(F)F)cc1)c1ccccc1 (stereo not drawn) [Fluoxetine]			B 10.09	
CC(C(=O)O)c1ccc(-c2ccccc2)c(F)c1 (stereo not drawn) [Flurbiprofen]		A 4.01		
Nc1nc2ncc(CNc3ccc(C(=O)N[C@@H](CCC(=O)O)C(=O)O)cc3)nc2c(=O)[nH]1 [Folic Acid]	0.2		2.33	
Oc1cccc2ccccc12 [Form 1-naphthol, 1-naphthol]		A 9.175		
O=C(CCCN1CCC(O)(c2ccc(Cl)cc2)CC1)c1ccc(F)cc1 [Haloperidol]			B 8.42	

Compound	LogP [1]	pKa(s) A = acid [1]	pKa(s) B = Base [1]	further results
CN(C)CCCN1c2ccccc2CCc2ccccc21 [Imipramine]			B 9.54	
CNCCCC12CCC(c3ccccc31)c1ccccc12 [Maprotiline]	4.85		B 10.33	
Cc1ccc(Cl)c(Nc2ccccc2C(=O)O)c1Cl [Meclofenamic Acid]	5.9	A 4.10		
Cc1cccc(Nc2ccccc2C(=O)O)c1C [Mefenamic Acid]		A 4.221		
CCN(CC)CCNC(=O)c1cc(Cl)c(N)cc1OC [Metoclopramide]			B 9.24	
Clc1ccc(COC(Cn2ccnc2)c2ccc(Cl)cc2Cl)c(Cl)c1 (stereo not drawn) [Miconazole]			B 6.316	
CC(C)(C)NCC(O)COc1cccc2c1CC(O)C(O)C2 (stereo not drawn) [Nadolol]			B 9.696	
O=C(O)c1cccnc1Nc1cccc(C(F)(F)F)c1 [Niflumic Acid]	3.88		2.26	
O=C1CN(/N=C/c2ccc([N+](=O)[O-])o2)C(=O)N1 [Nitrofurantoin]	−0.54	A 7.05		
CCn1cc(C(=O)O)c(=O)c2cc(F)c(N3CCNCC3)cc21 [Norfloxacin]	−1.03	A 6.324 B	8.575	
CNCCC=C1c2ccccc2CCc2ccccc21 [Nortriptyline]			B 10.21	
Cc1ccccc1C(OCCN(C)C)c1ccccc1 (stereo not drawn) [Orphenadrine]	3.84		B 9.037	
CC(=O)Nc1ccc(O)cc1 [Paracetamol]		A 9.52		
Cc1ccnc(NS(=O)(=O)c2ccc(N)cc2)n1 [Sulfamerazine]	0.15	6.81	2.22	
O=C(O)c1cc(/N=N/c2ccc(S(=O)(=O)Nc3ccccn3)cc2)ccc1O [Sulfasalazine]	3.61			
Nc1ccc(S(=O)(=O)Nc2nccs2)cc1 [Sulfathiazole]	0.07	7.168	B 2.124 A	
CC(C)(C)c1ccc(C(O)CCCN2CCC(C(O)(c3ccccc3)c3ccccc3)CC2)cc1 (stereo not drawn) [Terfenadine]	5.42		B 9.25	
NS(=O)(=O)c1cc2c(cc1Cl)NC(C(Cl)Cl)NS2(=O)=O (stereo not drawn) [Trichlormethiazide]	0.97			
CNc1cc2[nH]c(=O)n(-c3ccc(NC(=O)[N-]S(=O)(=O)c4ccc(Cl)s4)cc3)c(=O)c2cc1F.[K+] [potassium salt of formula (I)]				CMC ([2]; pH 6.0 phosphate buffer): 0.1 mg/mL; Surface tension at CMC ([2]; pH 6.0 phosphate buffer): 62 mN/m; maximum surface pressure change ([2]; pH6 phosphate buffer): 11 mN/m; CMC ([2]; pH 6.5 phosphate buffer): >1.7 mg/mL; Surface tension at CMC ([2]; pH 6.5 phosphate buffer): 68 mN/m; Surface Active ([2]; pH 6.5 phosphate buffer): Yes; CMC ([2]; pH 7.0 phosphate buffer): >2.7 mg/mL; Surface tension at CMC ([2]; pH 7.0 phosphate buffer): 65 mN/m; Surface Active ([2]; pH 7.0 phosphate buffer): Yes; CMC ([2]; pH 7.5 phosphate buffer): >4.0 mg/mL; Surface tension at CMC ([2]; pH 7.5 phosphate buffer): 63 mN/m; Surface Active ([2]; pH 7.5 phosphate buffer): Yes; CMC ([2]; pH 8.0 phosphate buffer): >3.5 mg/mL; Surface tension at CMC ([2]; pH 8.0 phosphate buffer): 63 mN/m; Surface Active ([2]; pH 8.0 phosphate buffer): Yes
